The source made the active and inactive calls. The calls are words filed in the database; no cut-off is given here.
Experiments:
H9c2 = test: Cardioprotective activity in H2O2 induced myocardial injury in rat H9c2 cells assessed as effect on LC3 level at upto 8 uM by q-PCR analysis; format: functional, cell-based
Mus musculus [1] = test: Cardioprotective activity against myocardial ischemia/reperfusion induced C57BL/6J mouse model assessed as alleviation of leukocyte infiltration at 10 mg/kg by H and E staining based analysis; format: functional, organism-based
TE-1 = test: Antiproliferative activity against human TE-1 cells assessed as inhibition of cell growth by MTT assay
MGC-803 [2] = test: Induction of apoptosis in human MGC-803 cells assessed as necrotic cells at 1 uM measured after 48 hrs by Annexin V-EGFP and PI staining based flow cytometry analysis (reference value: 3.90%); format: functional
Mus musculus [3] = test: Cardioprotective activity against myocardial ischemia/reperfusion induced C57BL/6J mouse model assessed as alleviation of severe edema at 10 mg/kg by H and E staining based analysis; format: functional, organism-based
Mus musculus [4] = test: Cardioprotective activity against myocardial ischemia/reperfusion induced C57BL/6J mouse model assessed as reduction in myocardial infarction area at 2.5 mg/kg (reference value: 72.19%); format: functional; parameters: scale not given: the % may be the effect or the level left
[5] = Tmax in male Sprague-Dawley rat at 7 mg/kg,po measured upto 8 hrs by UPLC-MS/MS analysis; format: ADME, organism-based; conditions: in vivo
SMMC-7721 = test: Antiproliferative activity against human SMMC-7721 cells assessed as inhibition of cell growth by MTT assay
MGC-803 [6] = test: Induction of apoptosis in human MGC-803 cells assessed as viable cells at 1 uM measured after 48 hrs by Annexin V-EGFP and PI staining based flow cytometry analysis (reference value: 92.3%); format: functional; conditions: read-out: Activity

## O=C(NO)c1ccc(CNC(=O)c2cc(-c3ccc(F)cc3)cn3ccnc23)cc1
H9c2
  Activity: inactive
Mus musculus [1]
  Activity: Active
TE-1
  IC50: 4.5 µM
MGC-803 [2]
  Activity: 4.7%
Mus musculus [3]
  Activity: Active
Mus musculus [4]
  Activity: 59.66%
[5]
  Tmax: 1 h
SMMC-7721
  IC50: 2.74 µM
MGC-803 [6]
  viability at 1 µM: 77.2%

— ChEMBL document CHEMBL5550215, “Discovery of Novel Imidazo[1,2-a]pyridine-Based HDAC6 Inhibitors as an Anticarcinogen with a Cardioprotective Effect” (J Med Chem, 2024)
